Measured values reported in ChEMBL document CHEMBL1201862, “PubChem BioAssay data set” (2004).
The source made the active and inactive calls. Rule as the data show it, for most assays here: actives have a measured EC50 and inactives only a lower limit.

Legend:
[1] = biological target: Mitogen-activated protein kinase 10 (Homo sapiens, UniProt P53779); assay: Dose response biochemical screening assay for inhibitors of c-Jun N-Terminal Kinase 3 (JNK3). [Related pubchem assays: 746 ]
Integrin alpha-L = Integrin alpha-L (Mus musculus, UniProt P24063); assay: modulators of CD8 T cell-vesicle binding, dose response, powder samples, mouse 2C CD8+ cells (AID 504565); assay type: functional
Chain of Integrin alpha-L (P24063 whole entry): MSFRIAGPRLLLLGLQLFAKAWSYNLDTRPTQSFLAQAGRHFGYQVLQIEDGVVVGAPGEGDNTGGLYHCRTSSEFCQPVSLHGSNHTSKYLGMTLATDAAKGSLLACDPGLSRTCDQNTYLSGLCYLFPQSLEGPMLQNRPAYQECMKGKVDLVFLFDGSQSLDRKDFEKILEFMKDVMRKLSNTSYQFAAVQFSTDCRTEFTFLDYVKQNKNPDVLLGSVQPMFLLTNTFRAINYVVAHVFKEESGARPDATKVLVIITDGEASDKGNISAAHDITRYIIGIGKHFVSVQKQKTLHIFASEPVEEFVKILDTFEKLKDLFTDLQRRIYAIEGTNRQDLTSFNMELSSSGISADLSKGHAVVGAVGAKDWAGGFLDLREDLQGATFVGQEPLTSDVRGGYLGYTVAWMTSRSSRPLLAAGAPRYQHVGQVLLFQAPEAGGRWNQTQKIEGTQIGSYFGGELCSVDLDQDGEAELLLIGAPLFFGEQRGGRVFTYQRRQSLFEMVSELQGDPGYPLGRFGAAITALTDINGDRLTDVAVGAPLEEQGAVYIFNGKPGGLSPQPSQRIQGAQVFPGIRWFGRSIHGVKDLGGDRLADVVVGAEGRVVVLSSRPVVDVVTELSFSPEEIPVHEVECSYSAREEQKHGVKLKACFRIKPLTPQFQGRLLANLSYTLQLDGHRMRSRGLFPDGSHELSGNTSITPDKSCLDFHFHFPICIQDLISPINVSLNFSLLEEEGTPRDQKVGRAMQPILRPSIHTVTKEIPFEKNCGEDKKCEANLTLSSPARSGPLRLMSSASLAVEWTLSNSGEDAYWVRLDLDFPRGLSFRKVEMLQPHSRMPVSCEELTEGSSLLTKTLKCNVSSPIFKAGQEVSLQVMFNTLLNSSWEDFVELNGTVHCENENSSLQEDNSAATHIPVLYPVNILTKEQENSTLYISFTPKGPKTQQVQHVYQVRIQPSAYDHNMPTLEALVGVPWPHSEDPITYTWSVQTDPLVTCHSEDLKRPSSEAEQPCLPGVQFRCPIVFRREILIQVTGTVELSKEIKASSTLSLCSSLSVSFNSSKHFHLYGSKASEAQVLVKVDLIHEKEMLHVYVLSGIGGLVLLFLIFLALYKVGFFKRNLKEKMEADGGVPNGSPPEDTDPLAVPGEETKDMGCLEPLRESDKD

T-cell = assay: loss of vesicle association with mouse CD8+ T cells – mouse 2C CD8+ T cells, flow cytometry, dose response (AID 485284); assay type: functional
[2] = Luminescence Cell-Based Dose Response HTS to Identify Activators of Luciferase Translation or Activity in H4 […] Cells. [Related pubchem assays: 1829 (Project Summary), 1814 (Primary HTS)]; assay type: functional
H4 = assay: Luminescence Cell-Based Dose Response HTS to Identify Activators of 5'UTR Stem-Loop Driven Prion Protein mRNA Translation in H4 Neuroglioblastoma Cells. [Related pubchem assays: 1829 (Project Summary), 1814 (Primary HTS)]; assay type: functional; settings: Homo sapiens
[3] = biological target: NACHT, LRR and PYD domains-containing protein 3 (Homo sapiens, UniProt Q96P20); assay: NALP3 inhibitors in yeast, dose response, luminescent (AID 488799); assay type: functional
Chain of NACHT, LRR and PYD domains-containing protein 3 (Q96P20 whole entry, the tested form may be a part): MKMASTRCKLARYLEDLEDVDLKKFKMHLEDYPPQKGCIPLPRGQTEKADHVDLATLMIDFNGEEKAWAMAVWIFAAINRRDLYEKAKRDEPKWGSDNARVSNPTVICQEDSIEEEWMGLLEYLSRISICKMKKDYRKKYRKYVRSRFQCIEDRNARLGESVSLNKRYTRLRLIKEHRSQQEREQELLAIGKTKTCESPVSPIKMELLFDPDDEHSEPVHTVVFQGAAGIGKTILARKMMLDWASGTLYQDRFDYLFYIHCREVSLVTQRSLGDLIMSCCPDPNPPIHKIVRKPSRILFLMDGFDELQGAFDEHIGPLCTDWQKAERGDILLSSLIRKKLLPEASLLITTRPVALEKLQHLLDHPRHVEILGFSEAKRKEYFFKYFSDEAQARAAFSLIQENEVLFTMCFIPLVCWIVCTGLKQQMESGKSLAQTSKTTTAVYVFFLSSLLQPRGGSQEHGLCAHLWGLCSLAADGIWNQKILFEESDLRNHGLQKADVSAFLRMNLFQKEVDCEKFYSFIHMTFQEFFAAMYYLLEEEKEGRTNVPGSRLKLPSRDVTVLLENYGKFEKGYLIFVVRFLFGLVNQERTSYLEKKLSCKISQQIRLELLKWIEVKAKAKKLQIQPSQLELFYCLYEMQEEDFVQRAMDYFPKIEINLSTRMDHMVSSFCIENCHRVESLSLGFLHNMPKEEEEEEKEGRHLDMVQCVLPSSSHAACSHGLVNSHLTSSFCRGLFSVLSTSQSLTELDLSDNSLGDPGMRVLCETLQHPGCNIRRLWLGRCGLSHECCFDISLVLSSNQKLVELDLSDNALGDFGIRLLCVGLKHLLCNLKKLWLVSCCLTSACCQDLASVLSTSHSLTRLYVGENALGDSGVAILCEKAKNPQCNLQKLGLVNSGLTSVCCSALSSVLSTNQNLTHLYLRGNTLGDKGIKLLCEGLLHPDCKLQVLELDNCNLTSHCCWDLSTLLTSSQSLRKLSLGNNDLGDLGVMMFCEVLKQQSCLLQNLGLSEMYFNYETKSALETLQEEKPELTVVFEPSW

[4] = biological target: T1, Short transient receptor potential channel 4 (Mus musculus, UniProt Q9QUQ5); assay: potentiation of DAMGO-evoked TRPC4 calcium signal – cell-based, HEK293 TRPC4/mu-opioid, Fluo-4 calcium, EC20 DAMGO, dose response (AID 434941); assay type: functional
T1 sequence (Q9QUQ5 whole entry): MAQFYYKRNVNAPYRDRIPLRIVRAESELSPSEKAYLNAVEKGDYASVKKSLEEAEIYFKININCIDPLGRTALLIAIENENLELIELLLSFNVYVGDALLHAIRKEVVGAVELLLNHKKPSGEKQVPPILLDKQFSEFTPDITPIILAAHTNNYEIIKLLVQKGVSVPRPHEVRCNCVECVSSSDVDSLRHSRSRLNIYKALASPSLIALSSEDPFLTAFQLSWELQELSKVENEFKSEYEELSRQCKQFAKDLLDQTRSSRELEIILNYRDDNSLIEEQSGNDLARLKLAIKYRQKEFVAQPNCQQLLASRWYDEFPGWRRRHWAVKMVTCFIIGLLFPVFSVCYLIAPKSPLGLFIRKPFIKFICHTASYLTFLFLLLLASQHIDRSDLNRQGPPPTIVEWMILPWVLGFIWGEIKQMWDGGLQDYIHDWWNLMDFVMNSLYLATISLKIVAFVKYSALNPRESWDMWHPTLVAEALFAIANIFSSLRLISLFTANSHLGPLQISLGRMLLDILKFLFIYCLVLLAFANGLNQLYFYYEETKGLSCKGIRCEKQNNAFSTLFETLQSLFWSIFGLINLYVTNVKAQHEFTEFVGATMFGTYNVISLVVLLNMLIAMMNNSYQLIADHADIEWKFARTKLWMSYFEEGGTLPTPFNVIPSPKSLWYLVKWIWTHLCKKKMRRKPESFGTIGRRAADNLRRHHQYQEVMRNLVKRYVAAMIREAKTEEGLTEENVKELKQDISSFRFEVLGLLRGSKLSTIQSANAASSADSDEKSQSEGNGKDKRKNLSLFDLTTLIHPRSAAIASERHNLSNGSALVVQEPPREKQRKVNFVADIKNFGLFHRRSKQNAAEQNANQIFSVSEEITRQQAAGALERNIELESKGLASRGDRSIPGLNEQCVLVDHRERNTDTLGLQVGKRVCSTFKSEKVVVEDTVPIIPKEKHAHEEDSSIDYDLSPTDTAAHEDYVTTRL

[5] = luciferase reporter signal suppression in cells – H4 neuroglioma cells, luminescence, dose response (AID 1990); assay type: functional, cell-based
[6] = Luminescence Cell-Based Dose Response HTS to Identify Inhibitors of 5'UTR Stem-Loop Driven Prion Protein mRNA Translation in H4 Neuroglioblastoma Cells. [Related pubchem assays: 1827 (Project Summary), 1813 (Primary HTS)]; assay type: functional
[7] = alpha-synuclein stem-loop luciferase translation blockers – H4 neuroglioma cells, luminescence, confirmation (AID 1988); assay type: functional, cell-based
[8] = biological target: DNA damage-inducible transcript 3 protein (Mus musculus, UniProt P35639); assay type: functional, Cricetulus griseus
Chain of DNA damage-inducible transcript 3 protein (P35639 whole entry): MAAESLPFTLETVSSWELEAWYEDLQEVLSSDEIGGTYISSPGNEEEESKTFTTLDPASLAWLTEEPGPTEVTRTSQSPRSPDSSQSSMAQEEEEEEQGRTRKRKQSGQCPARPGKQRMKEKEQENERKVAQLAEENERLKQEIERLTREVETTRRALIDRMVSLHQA

X-box-binding protein 1 = X-box-binding protein 1 (Homo sapiens, UniProt P17861); assay type: functional, Cricetulus griseus;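 also: confirmatory dose-response counter-screen serving a CHOP assay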
Chain of X-box-binding protein 1 (P17861 whole entry, the tested form may be a part): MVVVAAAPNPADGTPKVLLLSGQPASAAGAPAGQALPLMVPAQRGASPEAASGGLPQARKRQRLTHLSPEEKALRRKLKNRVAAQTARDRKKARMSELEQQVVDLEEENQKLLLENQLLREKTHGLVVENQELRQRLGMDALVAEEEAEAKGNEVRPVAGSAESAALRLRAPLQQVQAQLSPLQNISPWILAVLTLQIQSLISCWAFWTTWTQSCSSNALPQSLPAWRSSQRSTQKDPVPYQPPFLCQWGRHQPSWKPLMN

[9] = luciferase reporter signal reduction – luminescence, H4-C neuroglioblastoma cells, dose response (AID 2458); assay type: functional, cell-based;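 also: H4 neuroglioblastoma cells stably carrying a luciferase reporter gene fusion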
BJ [10] = assay: BJ-TERT fibroblast viability loss – cell-based, RAS-independent, luminescence, dose response (AID 1933); assay type: functional; settings: Homo sapiens
cells = assay type: functional, cell-based
BJ [11] = assay: cells; assay type: functional, cell-based; settings: Homo sapiens
Prothrombin = Prothrombin (Homo sapiens, UniProt P00734); assay: Thrombin 1536 HTS Dose Response Confirmation. [Related pubchem assays: 1046 (Thrombin 1536 HTS; hits were confirmed in this assay)]; assay type: functional
J774.A1 = assay: Confirmation of image-based Screening Assay for Inhibitors of Phagocytosis. [Related pubchem assays (depositor defined):AID1029, AID1643]; assay type: functional, cell-based; settings: Mus musculus
BJ [12] = assay: BJ-TERT-LT-ST fibroblast viability loss – cell-based, RAS-independent, luminescence, dose response (AID 1935); assay type: functional; settings: Homo sapiens;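 also: BJ fibroblasts immortalized with TERT plus LT and ST oncogenes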
[13] = DRD fibroblast viability loss – cell-based, non-viral oncogenic, luminescence, dose response (AID 1934); assay type: functional; settings: Homo sapiens
[14] = alpha-synuclein stem-loop translation blockers – luminescence, H4 neuroglioblastoma cells, dose confirmation, confirmation (AID 2454); assay type: functional, cell-based;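 also: H4 neuroglioblastoma cells carrying an alpha-synuclein 5'UTR luciferase reporter; potency for inhibition of the luciferase signal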

Chain of Mitogen-activated protein kinase 10 (P53779 whole entry): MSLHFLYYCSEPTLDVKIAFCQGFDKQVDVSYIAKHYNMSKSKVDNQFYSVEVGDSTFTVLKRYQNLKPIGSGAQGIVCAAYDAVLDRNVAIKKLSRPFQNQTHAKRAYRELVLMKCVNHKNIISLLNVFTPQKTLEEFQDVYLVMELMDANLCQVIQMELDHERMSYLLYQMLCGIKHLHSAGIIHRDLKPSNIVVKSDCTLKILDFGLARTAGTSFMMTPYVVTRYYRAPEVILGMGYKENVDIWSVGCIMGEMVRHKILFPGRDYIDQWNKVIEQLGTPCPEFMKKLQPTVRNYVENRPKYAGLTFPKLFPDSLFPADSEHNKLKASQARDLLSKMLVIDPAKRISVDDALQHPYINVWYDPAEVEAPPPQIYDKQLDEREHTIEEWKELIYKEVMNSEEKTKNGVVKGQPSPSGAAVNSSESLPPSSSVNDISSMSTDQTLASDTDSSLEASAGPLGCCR

For `CCOc1ccc(-c2nc(N)ncc2-c2ccccc2)c(O)c1`, the IC50 [1] was 12.7 µM (not active), the EC50 (Integrin alpha-L) was 0.173 µM (active) and the EC50 (T-cell) was 25.8 µM (inactive).

For `O=C(Nc1cccc(Cl)c1)c1cnn2cccnc12`, the EC50 [2] was 3 µM (active), the EC50 (H4) was 19.1 µM (active) and the IC50 [3] was 8.19 µM (active). The EC50 [4] was 1.68 µM (active).

For `CC(C)CCn1c(SCc2ccc(Cl)cc2)nc2c1c(=O)[nH]c(=O)n2C`, the EC50 [5] was 14.3 µM (active), the EC50 [6] was 13.3 µM (active) and the EC50 [7] was 11.6 µM (active). For the same molecule, the “Absolute IC50 (CHOP)” value [8] was under 10 µM and the “Absolute IC50 (XBP1)” value (X-box-binding protein 1) was 10 µM.

With `O=C(c1ccco1)N1CCN(C(=O)N2c3ccccc3Sc3ccccc32)CC1` the EC50 [5] was < 0.1 µM (active), the EC50 [9] was 0.295 µM (active) and the EC50 (BJ [10]) was 8.08 µM (inconclusive). For the same molecule, the EC50 (cells) was 0.291 µM (active), the EC50 [6] was 0.136 µM (active) and the EC50 [7] was < 0.1 µM (active). For the same molecule, the EC50 (BJ [11]) was 13.2 µM (inconclusive), the IC50 (Prothrombin) was > 50 µM (not active) and the IC50 (J774.A1) was < 0.05 µM (inactive). The EC50 (BJ [12]) was 1.41 µM (inconclusive), the EC50 [13] was 6.59 µM (inconclusive) and the EC50 [14] was 0.381 µM (active).
